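Compound exposure: 48 hours, 5 concentrations, 96-well plates. TGI: total growth inhibition.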 Where a SMILES comes first, the peptide text is derived from it. [ ]: non-standard residue; d: D form. β3hI = CC[CH](C)[CH](N)CC(=O)O
Columns and labels:
Experiment in all cases: DTP human tumour cell line panel, 48 h
[1] = tested on: 786-0 renal
[2] = tested on: DU-145 prostate
[3] = tested on: HS 578T breast
[4] = tested on: K-562 leukemia
[5] = tested on: LOX IMVI melanoma
[6] = tested on: MDA-N
[7] = tested on: OVCAR-8 ovarian
[8] = tested on: RPMI-8226 leukemia
[9] = tested on: SF-268 CNS
[10] = tested on: SK-MEL-28 melanoma
[11] = tested on: SK-OV-3 ovarian
[12] = tested on: SNB-19 CNS
[13] = tested on: SNB-75 CNS
[14] = tested on: SW-620 colon
[15] = tested on: T-47D breast
[16] = tested on: UACC-62 melanoma

Row | SMILES | TGI [1] | TGI [2] | TGI [3] | TGI [4] | TGI [5] | TGI [6] | TGI [7] | TGI [8] | TGI [9] | TGI [10] | TGI [11] | TGI [12] | TGI [13] | TGI [14] | TGI [15] | TGI [16]
1 | NCCCN1CCN(CC(=O)O)CCN(CCCN)CCN(CC(=O)O)CC1 | > 85.3 µM | > 100 µM | > 100 µM | > 100 µM | > 100 µM | > 100 µM | > 100 µM | > 100 µM | > 100 µM | > 100 µM | > 100 µM | > 100 µM | > 100 µM | > 100 µM | > 100 µM | > 100 µM
2 | CC(=O)OCC1OC(n2c(N)c(C#N)c(-c3ccc(C)cc3)c(C#N)c2=S)C(OC(C)=O)C(OC(C)=O)C1OC(C)=O (centres undefined) | 29.2 µM | 28.7 µM | 38.7 µM | > 100 µM | > 100 µM | 30.9 µM | 28.5 µM | 80 µM | 28.5 µM | > 100 µM | 66.5 µM | 34.8 µM | 29.5 µM | > 100 µM | 47.8 µM | > 100 µM
3 | N#CC(c1cc2c(cc1Br)OCO2)N1CCOCC1 (centres undefined) | > 100 µM | > 100 µM | 83.8 µM | 57.1 µM | > 100 µM | > 100 µM | > 100 µM | > 100 µM | > 100 µM | > 100 µM | > 100 µM | > 100 µM | 99.6 µM | > 100 µM | > 100 µM | > 100 µM
4 | N#CCCN(CCC#N)c1ccc(/C=C2\N=C(c3ccccc3)N(c3ccccn3)C2=O)cc1 | > 100 µM | > 100 µM | > 100 µM | > 100 µM | > 100 µM | > 100 µM | > 100 µM | > 100 µM | > 100 µM | > 100 µM | > 100 µM | > 100 µM |  | > 100 µM | > 100 µM | > 100 µM
5 | CCOC(=O)NC(NC(C)CC)(C(F)(F)F)C(F)(F)F (centres undefined) | > 100 µM | > 100 µM | > 100 µM | > 100 µM | > 100 µM | > 100 µM | > 100 µM | > 100 µM | > 100 µM | > 100 µM |  | > 100 µM | > 100 µM | > 100 µM | > 100 µM | > 100 µM
6 | O=C(c1cccnc1)N1N=C(c2ccc(Cl)cc2)CC1(O)c1cc(F)c(Cl)cc1Cl (centres undefined) | 53.8 µM | > 100 µM | > 100 µM | > 100 µM | 31.2 µM | > 100 µM | > 100 µM | 47.6 µM | 75 µM | 91.7 µM | > 100 µM | > 100 µM | 37.3 µM | > 100 µM | 20.7 µM | 
7 | N/N=C1/CCCc2nonc21 | > 100 µM | > 100 µM | > 100 µM | > 100 µM | > 100 µM | > 100 µM | > 100 µM | > 100 µM | > 100 µM | > 100 µM | > 100 µM |  |  | > 100 µM | > 100 µM | > 100 µM
8 | S=C(S)N1CCN(c2ccc(Cl)c(Cl)c2)CC1 | > 100 µM | 57 µM | 97.2 µM | 55.8 µM | 31.6 µM | 35 µM | > 100 µM | 45.8 µM | > 100 µM | 62.7 µM |  | > 100 µM | > 100 µM | 52.9 µM | 42.6 µM | 
9 | c1ccc2c(c1)Nc1nc3nonc3nc1N2 | > 100 µM | > 100 µM | > 100 µM | > 100 µM | > 100 µM | > 100 µM | > 100 µM | > 100 µM | > 100 µM | > 100 µM | > 100 µM | > 100 µM |  | > 100 µM | > 100 µM | > 100 µM
10 | CC(C)(C)C(=O)C(C(c1ccccc1)N1CCOCC1)N1CCOCC1 (centres undefined) | > 100 µM | > 100 µM | > 100 µM | > 100 µM | > 100 µM | > 100 µM | > 100 µM | > 100 µM | > 100 µM | > 100 µM |  | > 100 µM | > 100 µM | > 100 µM | > 100 µM | > 100 µM
11 | CCC(C)C(CC(=O)N1CCCC1C(=O)NC(C(=O)NC(C(=O)NCC(=O)NC(CC(N)=O)C(=O)NC(C(=O)NC(C(=O)NC(CCCCN)C(N)=O)C(C)CC)C(C)CC)C(C)C)C(C)CC)NC(=O)C(N)C(C)CC (stereo not drawn) (H-I[β3hI]PIVGNIIK-NH2; configuration not given here) | > 50 µM | > 50 µM | > 50 µM |  | > 50 µM | > 50 µM | > 50 µM | > 50 µM | > 50 µM | > 50 µM | > 50 µM | > 50 µM |  | > 50 µM | > 50 µM | > 50 µM
12 | ClC1=C(Cc2ccccc2)Cc2ccc3c(c21)CCC3 | 89.1 µM | > 100 µM | 84.3 µM | 76 µM | 32.9 µM | > 100 µM | > 100 µM | 65.3 µM | > 100 µM | > 100 µM | > 100 µM | 52 µM |  | > 100 µM | 50.4 µM | 60.3 µM
13 | Oc1ccc(Cn2c(-c3ccc(O)c(O)c3)nc3ccccc32)cc1O | 29 µM | 66.9 µM | 35.2 µM | 55.9 µM | 26 µM | > 100 µM | 25.5 µM | 46.1 µM | > 100 µM | 78 µM | 59.6 µM | 83.4 µM | 39.4 µM | 42.1 µM | 45.1 µM | 
14 | O=c1[nH]nc(Cc2ccc(Cl)cc2)n1/N=C\c1ccc(/C=N/n2c(Cc3ccc(Cl)cc3)n[nH]c2=O)cc1 | 53.1 µM | > 100 µM | > 100 µM | > 100 µM | > 100 µM | > 100 µM | > 100 µM | > 100 µM | > 100 µM | > 100 µM |  | > 100 µM |  | > 100 µM | > 100 µM | > 100 µM
15 | COc1ccc(N2C(=O)C3c4[nH]c5cccc(C)c5c4C4CCC(C(C)(C)C)CC4C3C2=O)cc1 (centres undefined) |  | > 10 µM | > 10 µM | > 10 µM | > 10 µM | > 10 µM | > 10 µM | > 10 µM | > 10 µM | > 10 µM | > 10 µM | > 10 µM | > 10 µM | > 10 µM | > 10 µM | > 10 µM
